Values after ≈ are worked out from the molar mass of the structure shown.
Key:
[1] = system: Human immunodeficiency virus 1; assay: Antiviral activity against HIV1 3B in MT4 cells assessed as inhibition of virus-induced cytopathogenicity by MTT assay; assay type: functional, organism-based; conditions: Human immunodeficiency virus 1, 3B
[2] = system: Human immunodeficiency virus 2; assay: Antiviral activity against HIV2 ROD in MT4 cells assessed as inhibition of virus-induced cytopathogenicity by MTT assay; assay type: functional, organism-based; conditions: Human immunodeficiency virus 2, ROD
[3] = Cytotoxicity against mock-infected human MT4 cells after 5 days by MTT assay; assay type: cell-based
[4] = Selectivity index, ratio of CC50 for human MT4 cells to EC50 for HIV1 3B; assay type: toxicity, cell-based; conditions: read-out: Ratio CC50/EC50
[5] = Selectivity index, ratio of CC50 for human MT4 cells to EC50 for HIV2 ROD; assay type: toxicity, cell-based; conditions: read-out: Ratio CC50/EC50
[6] = system: Human immunodeficiency virus 1; assay: Antiviral activity against HIV1 3B in CEM cells assessed as inhibition of virus-induced syncytium formation after 4 days by microscopy; assay type: functional, organism-based; conditions: Human immunodeficiency virus 1, 3B, CCRF-CEM, 96 h
[7] = system: Human immunodeficiency virus 2; assay: Antiviral activity against HIV2 ROD in CEM cells assessed as inhibition of virus-induced syncytium formation after 4 days by microscopy; assay type: functional, organism-based; conditions: Human immunodeficiency virus 2, ROD, CCRF-CEM, 96 h
[8] = Cytotoxicity against mock-infected human CEM cells by Coulter counter; assay type: cell-based; conditions: mock-infected CEM (CCRF-CEM) cells
[9] = Selectivity index, ratio of CC50 for human CEM cells to EC50 for HIV1 3B; assay type: toxicity, cell-based, CCRF-CEM; conditions: read-out: Ratio CC50/EC50
[10] = Selectivity index, ratio of CC50 for human CEM cells to EC50 for HIV2 ROD; assay type: toxicity, cell-based, CCRF-CEM; conditions: read-out: Ratio CC50/EC50
[11] = system: Human immunodeficiency virus 1; assay: Antiviral activity against HIV1 3B in PBMC assessed as inhibition of p24 production after 7 days by ELISA; assay type: functional, organism-based; conditions: Human immunodeficiency virus 1, 3B, 168 h
[12] = Cytotoxicity against mock-infected human PBMC cells by trypan blue exclusion assay; assay type: cell-based
[13] = Selectivity index, ratio of CC50 for human PBMC cells to EC50 for HIV1 3B; assay type: toxicity, cell-based; conditions: read-out: Ratio CC50/EC50

| Compound | EC50 [1] [µg/mL] | EC50 [2] [µg/mL] | CC50 at 120 h [3] [µg/mL] | selectivity ratio [4] | selectivity ratio [5] | EC50 [6] [µg/mL] | EC50 [7] [µg/mL] | CC50 [8] [µg/mL] | selectivity ratio [9] | selectivity ratio [10] | EC50 [11] [µg/mL] | CC50 [12] [µg/mL] | selectivity ratio [13] |
| --- | --- | --- | --- | --- | --- | --- | --- | --- | --- | --- | --- | --- | --- |
| Nc1cc2c(=O)c(C(=O)O)c[nH]c2cc1N1CCN(c2nccs2)CC1 | 1.21 (≈ 3.26 µM) | 1.92 (≈ 5.17 µM) | 7.61 (≈ 20.5 µM) | 7 | 5 | 0.7 (≈ 1.88 µM) | 0.6 (≈ 1.62 µM) | 15.8 (≈ 42.5 µM) | 23 | 26 | 0.21 (≈ 0.565 µM) | 2.02 (≈ 5.44 µM) | 10 |
| Cn1cc(C(=O)O)c(=O)c2ccc(N3CCN(c4ccccn4)CC3)cc21 | 19.2 (≈ 52.7 µM) | > 65.5 | 65.5 (≈ 180 µM) | 3.4 | < 1 | 1.2 (≈ 3.29 µM) | 1.8 (≈ 4.94 µM) | > 100 | > 83 | > 56 | 1.35 (≈ 3.7 µM) | > 100 | > 74 |
| Cn1cc(C(=O)O)c(=O)c2cc(N)c(N3CCNCC3)cc21 | > 94 | > 94 | ≥ 94 |  |  |  |  |  |  |  |  |  |  |
| Cn1ccc(=O)c2cc(N)c(N3CCN(c4nc5ccccc5o4)CC3)cc21 | > 72.1 | > 72.1 | 72.1 (≈ 192 µM) | < 1 | < 1 |  |  |  |  |  |  |  |  |
| Cn1cc(C(=O)O)c(=O)c2cc(N)c(N3CCC(c4ccccn4)CC3)cc21 | > 125 | > 125 | > 125 |  |  |  |  |  |  |  |  |  |  |
| Cn1ccc(=O)c2cc(N)c(N3CCN(c4ccccn4)CC3)cc21 | > 105 | > 104 | 105 (≈ 313 µM) | < 1 | < 1 |  |  |  |  |  |  |  |  |
| CO/N=C(\C)c1cn(C)c2cc(N3CCN(c4ccccn4)CC3)c(N)cc2c1=O | > 92.6 | > 92.6 | 92.7 (≈ 228 µM) | < 1 | < 1 |  |  |  |  |  |  |  |  |
| Cn1cc(C(=O)O)c(=O)c2cc(N)c(N3CCN(Cc4ccccn4)CC3)cc21 | > 125 | > 125 | > 125 |  |  |  |  |  |  |  |  |  |  |
| Cn1cc(C(=O)NCc2ccc(Cl)cc2)c(=O)c2cc(N)c(N3CCN(c4ccccn4)CC3)cc21 | > 125 | > 125 | > 125 |  | 1 |  |  |  |  |  |  |  |  |
| Nc1cc2c(=O)c(C(=O)O)c[nH]c2cc1N1CCN(c2cccc(C(F)(F)F)c2)CC1 | 0.38 (≈ 0.879 µM) | 0.46 (≈ 1.06 µM) | 1.64 (≈ 3.79 µM) | 4 | 4 |  |  |  |  |  |  |  |  |
| Cn1cc(C(=O)O)c(=O)c2cc(N)c(N3CCC(c4ccccn4)C3)cc21 (stereo not given) | > 90.8 | > 90.8 | > 90.8 | < 1 | < 1 |  |  |  |  |  |  |  |  |
| Cn1cc(C(=O)O)c(=O)c2ccc(N3CCN(c4cnccn4)CC3)cc21 | 58.2 (≈ 159 µM) | 16.4 (≈ 44.7 µM) | > 125 | > 2 | 8 | 35 (≈ 95.8 µM) | 47.5 (≈ 130 µM) | > 100 | > 3 | > 2 |  |  |  |
| Nc1cc2c(=O)c(C(=O)O)c[nH]c2cc1N1CCN(c2nc3ccccc3o2)CC1 | 0.23 (≈ 0.567 µM) | 0.28 (≈ 0.691 µM) | 1.95 (≈ 4.81 µM) | 11 | 7 | 0.3 (≈ 0.74 µM) | 0.23 (≈ 0.567 µM) | 3.17 (≈ 7.82 µM) | 11 | 14 | 0.16 (≈ 0.395 µM) | 1.12 (≈ 2.76 µM) | 7 |
| Cn1cc(C(N)=O)c(=O)c2cc(N)c(N3CCN(c4ccccn4)CC3)cc21 | > 125 | > 125 | > 125 |  |  |  |  |  |  |  |  |  |  |
| C/C(=N\O)c1cn(C)c2cc(N3CCN(c4ccccn4)CC3)c(N)cc2c1=O | > 125 | > 125 | > 125 |  |  |  |  |  |  |  |  |  |  |
| Cn1cc(C(=O)NCc2ccc(F)cc2F)c(=O)c2cc(N)c(N3CCN(c4ccccn4)CC3)cc21 | > 32.2 | > 32.2 | 32.2 (≈ 63.9 µM) | < 1 | < 1 |  |  |  |  |  |  |  |  |
| CC(=O)c1cn(C)c2cc(N3CCN(c4ccccn4)CC3)c(N)cc2c1=O | > 125 | > 125 | > 125 |  |  |  |  |  |  |  |  |  |  |
| Cn1cc(C(=O)O)c(=O)c2ccc(N3CCN(c4nccs4)CC3)cc21 | 10 (≈ 27.1 µM) | 12.7 (≈ 34.3 µM) | > 125 | > 12 | > 10 | 2.6 (≈ 7.02 µM) | 8 (≈ 21.6 µM) | ≥ 100 | ≥ 38 | ≥ 12 |  |  |  |
| Cn1cc(C(=O)O)c(=O)c2cc(N)c(N3CCN(c4ccc5ccccc5n4)CC3)cc21 | 0.035 (≈ 0.0815 µM) | 0.022 (≈ 0.0512 µM) | 0.21 (≈ 0.489 µM) | 6 | 10 | 0.036 (≈ 0.0838 µM) | 0.075 (≈ 0.175 µM) | 4.15 (≈ 9.66 µM) | 115 | 55 |  |  |  |
| CCN(CCNc1cc2c(cc1N)c(=O)c(C(=O)O)cn2C)c1ccccn1 | > 16.9 | > 16.9 | 16.9 (≈ 44.2 µM) |  |  |  |  |  |  |  |  |  |  |
| Cn1cc(C(=O)O)c(=O)c2cc(N)c(N3CCN(c4cnc5ccccc5n4)CC3)cc21 | 0.18 (≈ 0.418 µM) | 0.19 (≈ 0.441 µM) | 3.2 (≈ 7.43 µM) | 18 | 17 | 0.05 (≈ 0.116 µM) | 0.28 (≈ 0.65 µM) | > 4 | > 80 | > 14 |  |  |  |
| Nc1cc2c(=O)c(C(=O)O)c[nH]c2cc1N1CCN(c2ccccn2)CC1 | 0.45 (≈ 1.23 µM) | 0.16 (≈ 0.438 µM) | 2.16 (≈ 5.91 µM) | 5 | 14 | 0.051 (≈ 0.14 µM) | 0.09 (≈ 0.246 µM) | 4.75 (≈ 13 µM) | 93 | 53 | 0.094 (≈ 0.257 µM) | 1.28 (≈ 3.5 µM) | 13 |
| Cn1ccc(=O)c2cc(N)c(N3CCN(c4nccs4)CC3)cc21 | > 89.5 | > 89.5 | 89.5 (≈ 262 µM) | < 1 | < 1 |  |  |  |  |  |  |  |  |
| Cn1cc(C(=O)O)c(=O)c2cc(N)c(N3CCN(c4ccccn4)CC3)cc21 | 0.058 (≈ 0.153 µM) | 0.097 (≈ 0.256 µM) | 0.84 (≈ 2.21 µM) | 15 | 10 | 0.03 (≈ 0.0791 µM) | 0.06 (≈ 0.158 µM) | > 100 | > 3330 | > 1670 | 0.051 (≈ 0.134 µM) | 1.45 (≈ 3.82 µM) | 29 |
| Cc1cccc(Sc2cc3c(cc2N)c(=O)c(C(=O)O)cn3C)c1 | > 2 | > 2 | > 2 | < 1 | < 1 |  |  |  |  |  |  |  |  |

Reference: ChEMBL document CHEMBL1140044, “Structure-activity relationship study on anti-HIV 6-desfluoroquinolones” (J Med Chem, 2008)
